{
  "source": "ChEMBL document CHEMBL2380194",
  "about": "“Structure-based design of HSPA5 inhibitors: from peptide to small molecule inhibitors” (Bioorg Med Chem Lett, 2013)",
  "key": {"[1]": {"assay": "Cytotoxicity against human PNT2 cells assessed as growth inhibition at 0.1 to 10 uM after 72 hrs by cell titre glo assay", "type": "cell-based", "conditions": "pnt2, 72 h"}, "HCT-116 [2]": {"test_system": "HCT-116", "assay": "Cytotoxicity against human HCT116 cells assessed as cell viability at 0.1 to 100 uM after 48 hrs by cell titre glo assay", "type": "functional, cell-based"}, "HCT-116 [3]": {"test_system": "HCT-116", "assay": "Cytotoxicity against human HCT116 cells assessed as cell viability at 50 uM after 72 hrs by cell titre glo assay relative to control", "type": "functional", "conditions": "HCT-116, 72 h, read-out: Activity"}, "[4]": {"assay": "Cytotoxicity against human PNT2 cells assessed as cell viability at 50 uM after 72 hrs by cell titre glo assay", "type": "cell-based", "conditions": "pnt2, 72 h"}, "[5]": {"assay": "Cytotoxicity against human DK1 cells assessed as growth inhibition at 25 uM after 20 mins by green fluorescence assay relative to control", "type": "functional", "conditions": "DK1, 20 min, read-out: GI"}, "[6]": {"assay": "Cytotoxicity against human DK1 cells assessed as growth inhibition at 50 uM after 20 mins by green fluorescence assay relative to control", "type": "functional", "conditions": "DK1, 20 min, read-out: GI"}, "HCT-116 [7]": {"test_system": "HCT-116", "assay": "Cytotoxicity against human HCT116 cells assessed as cell viability after 72 hrs by cell titre glo assay", "type": "functional, cell-based"}, "[8]": {"assay": "Cytotoxicity against human PNT2 cells assessed as cell viability after 72 hrs by cell titre glo assay", "type": "cell-based", "conditions": "pnt2, 72 h"}, "HCT-116 [9]": {"test_system": "HCT-116", "assay": "Cytotoxicity against human HCT116 cells assessed as cell survival at 25 uM after 72 hrs by cell titre glo assay relative to control", "type": "functional", "conditions": "HCT-116, 72 h, read-out: Survival"}},
  "note": "The source made the active and inactive calls. The rule behind the calls is not given here.",
  "data": [
    {"smiles": "OC(c1c(Cl)cc(Cl)c2nc(C34CC5CC(CC(C5)C3)C4)ccc12)C1CCCCN1", "note": "(configuration not stated)", "values": [
      {"measurement": "growth inhibition (GI)", "setting": "[1]", "result": "Toxic"},
      {"measurement": "Activity", "setting": "HCT-116 [2]", "result": "Active"}
    ]},
    {"smiles": "Cc1cc(C)c2nc3c(c(C(O)C4CCCCN4)c2c1)CC/C3=C\\c1ccc(Cl)cc1", "note": "(configuration not stated)", "values": [
      {"measurement": "viability at 50 µM", "setting": "HCT-116 [3]", "result": 50, "unit": "%"},
      {"measurement": "Activity", "setting": "HCT-116 [2]", "result": "Active"},
      {"measurement": "Activity", "setting": "[4]", "result": "Non-toxic"}
    ]},
    {"smiles": "NC(CSC1(c2ccc(Cl)cc2)c2ccccc2-c2ccccc21)C(=O)O", "note": "(configuration not stated)", "values": [
      {"measurement": "inhibition of growth at 25 µM", "setting": "[5]", "result": 35, "unit": "%"},
      {"measurement": "Activity", "setting": "HCT-116 [2]", "result": "Active"},
      {"measurement": "inhibition of growth at 50 µM", "setting": "[6]", "result": 50, "unit": "%"},
      {"measurement": "Activity", "setting": "HCT-116 [7]", "result": "Dose-dependent effect"},
      {"measurement": "Activity", "setting": "[8]", "result": "Dose-dependent effect"}
    ]},
    {"smiles": "NS(=O)(=O)c1cc2c(cc1Cl)NC(Cc1ccccc1)NS2(=O)=O", "note": "(configuration not stated)", "values": [
      {"measurement": "Activity", "setting": "HCT-116 [2]", "result": "inactive"}
    ]},
    {"smiles": "CC[C@@]1(O)C(=O)OCc2c1cc1n(c2=O)Cc2cc3c(CN(C)C)c(O)ccc3nc2-1", "note": "[TOPOTECAN]", "values": [
      {"measurement": "growth inhibition (GI)", "setting": "[1]", "result": "Toxic"},
      {"measurement": "Activity", "setting": "HCT-116 [2]", "result": "Active"}
    ]},
    {"smiles": "COc1ccc2nc3cc(Cl)ccc3c(Nc3ccc(O)c(CN4CCN(C)CC4)c3)c2c1", "values": [
      {"measurement": "viability at 25 µM", "setting": "HCT-116 [9]", "result": 18, "unit": "%"},
      {"measurement": "inhibition of growth at 25 µM", "setting": "[5]", "result": 50, "unit": "%"},
      {"measurement": "Activity", "setting": "HCT-116 [2]", "result": "Active"},
      {"measurement": "Activity", "setting": "HCT-116 [7]", "result": "Dose-dependent effect"},
      {"measurement": "Activity", "setting": "[8]", "result": "Dose-dependent effect"}
    ]},
    {"smiles": "CC(C)c1ccc(C(C2=C(O)C3C=CC=CC3OC2=O)c2c(O)c3ccccc3oc2=O)cc1", "note": "(configuration not stated)", "values": [
      {"measurement": "Activity", "setting": "HCT-116 [2]", "result": "Active"}
    ]},
    {"smiles": "O=C1c2ccccc2NC(c2cc(Cl)cc(Cl)c2O)N1CCc1ccccn1", "note": "(configuration not stated)", "values": [
      {"measurement": "viability at 50 µM", "setting": "HCT-116 [3]", "result": 50, "unit": "%"},
      {"measurement": "Activity", "setting": "HCT-116 [2]", "result": "Active"},
      {"measurement": "Activity", "setting": "[4]", "result": "Non-toxic"}
    ]},
    {"smiles": "OC(c1cc(-c2ccccc2)nc2c1ccc1ccccc12)C1CCCCN1", "note": "(configuration not stated)", "values": [
      {"measurement": "viability at 25 µM", "setting": "HCT-116 [9]", "result": 0, "unit": "%"},
      {"measurement": "inhibition of growth at 25 µM", "setting": "[5]", "result": 50, "unit": "%"},
      {"measurement": "Activity", "setting": "HCT-116 [2]", "result": "Active"},
      {"measurement": "Activity", "setting": "HCT-116 [7]", "result": "Dose-dependent effect"},
      {"measurement": "Activity", "setting": "[8]", "result": "Dose-dependent effect"}
    ]}
  ]
}
